Measured values published in article PMC8293625, “HLA class-I-peptide stability mediates CD8^+ T cell immunodominance hierarchies and facilitates HLA-associated immune control of HIV” (Cell Reports, 2021).

Assays:
[1] = biological target: T1, HLA-B*5701 (Homo sapiens, UniProt P01889, D201E/D98Y/E176V/E187L/E204Q/E69M/E70A/G107R/I90N/K202T/L105A/L119I/N104I/N87E/Q89R/Q94S/R106L/R155S/R180L/R86G/S101N/S121V/S35A/S48A/T118I/V36M/Y140S/Y91M); test: Thermal denaturation (differential scanning fluorimetry) of soluble HLA class I-peptide monomers; type: binding; conditions: DSF, 2 μM pMHC, SYPRO orange; representative, performed twice as technical triplicates (Fig S4B)
Description: (§1) To confirm these observations and further validate the cell-based stability assay, we used an orthogonal approach to evaluate the relationship between HLA class-I-peptide stability and ID by assessing thermal denaturation of soluble HLA class-I-peptide complexes ([Hellman et al., 2016]). In this assay, soluble HLA class-I monomers with bound peptide are incubated in the presence of an environmentally sensitive fluorescent molecule whose fluorescence is enhanced when bound to exposed hydrophobic surfaces during protein unfolding. As a result, the thermal stability (Tm, defined as the temperature at which 50% of the protein is unfolded) of an HLA class-I-peptide complex can be determined by fluorometric measurements during incremental temperature increases, which serve as a proxy for the stabilizing capacity of a bound epitope ([Hellman et al., 2016]).
(§2) This relative difference in Tm between ID and SubD epitopes was also observed for HLA-A^∗02 and HLA-B^∗57 (Figure S4) and collectively was statistically significant (Figure 3C).
(§3) Expression, refold and purification of the soluble constructs of the pMHCs were performed as previously described ([Pierce et al., 2014]). Briefly, the HLA-A^∗02, HLA-A^∗03 and HLA-B^∗57 heavy chains, and β2-microglobulin were expressed in Escherichia coli and purified as inclusion bodies (IBs). The IBs were solubilized in 8M Urea. Target peptides were provided by the MGH Peptide Core. […]
(§4) Differential scanning fluorimetry was performed using a Bio-RAD CFX96 real time PCR system as previously described. Briefly, the excitation and emission wavelengths were set to 587 and 607 nm respectively, and the fluorescence intensity was measured after every 1°C rise in temperature starting from 20°C and going up to 95°C. […] Apparent Tm values were calculated by identifying the point at which the melting transition was 50% complete.

[2] = tested on: HLA class-I alleles A*0101, A*0201, A*0301, A*2402, B*0702, B*0801, B*1402, B*1501, B*2705, B*3501, B*3901, B*4001, B*4402, B*5201, B*5701, B*5801, B*8101 …; type: cell-based, human; conditions: section B*58, TAP-deficient mono-allelic 721.221 cells, relative anti-HLA MFI
[3] = biological target: T1, HLA-B*5701; test: Cell-based HLA class I-peptide concentration-based stability assay (TAP-deficient mono-allelic 721.221 cells); conditions: for Relative HLA MFI (10 uM) / Relative HLA MFI (100 uM): section B*57, TAP-deficient mono-allelic 721.221 cells, relative anti-HLA MFI; for Relative HLA MFI (10 uM): peptide 10 uM; for Relative HLA MFI (100 uM): peptide 100 uM; for anti-HLA MFI (surface HLA-B*5701): representative (Fig S2B)
Description: (§5) Controls without peptide, but the corresponding concentration of DMSO, were performed in parallel.

[4] = biological target: T2, HLA-A*0301 (Homo sapiens, UniProt P04439); test: Thermal denaturation (differential scanning fluorimetry) of soluble HLA class I-peptide monomers; type: binding; conditions: DSF, 2 μM pMHC, 10mM HEPES pH 7.4, 150 mM NaCl, SYPRO orange, 20–95°C in 1°C steps; representative (Fig 3B)
Description: as §1, §2, §3, §4

[5] = biological target: T2, HLA-A*0301; test: Cell-based HLA class I-peptide concentration-based stability assay (TAP-deficient mono-allelic 721.221 cells)
Description: as §5

[6] = biological target: HLA-A*0301 on TAP-deficient mono-allelic 721.221 cells (human | human (endogenous in 721.221)); test: flow cytometry on cells
[7] = biological target: Soluble HLA-A*0301 monomer (heavy chain and β2-microglobulin); test: differential scanning fluorimetry (thermal denaturation)

HTQGYFPDW [HW9]
thermal stability (Tm) of HLA-B*5701-peptide complex [1]: 57 °C | Relative HLA MFI (10 uM) ([2]; peptide 10 uM): 0.6285 | Relative HLA MFI (100 uM) ([2]; peptide 100 uM): 1 | Relative HLA MFI (10 uM) [3]: 0.3192 | Relative HLA MFI (100 uM) [3]: 0.6623

KAFSPEVIPMF [KF11]
thermal stability (Tm) of HLA-B*5701-peptide complex [1]: 57 °C | anti-HLA MFI (surface HLA-B*5701) ([3]; absence of β2m): 426 | anti-HLA MFI (surface HLA-B*5701) ([3]; presence of β2m (3 µg/mL)): 565 | Relative HLA MFI (10 uM) [3]: 0.2215 | Relative HLA MFI (100 uM) [3]: 0.5689

RLAFHHVAR [RR9]
thermal stability (Tm) of HLA-A*0301-peptide complex [4]: 44 °C | Relative HLA MFI (10 uM) ([5]; HLA A*03 mono-allelic TAP-deficient 721.221 cells, peptide 10 uM, relative anti-HLA MFI): 0.003513 | Relative HLA MFI (100 uM) ([5]; HLA A*03 mono-allelic TAP-deficient 721.221 cells, peptide 100 uM, relative anti-HLA MFI): 0.03204 | anti-HLA MFI (HLA-A*0301 surface stabilization) ([5]; HLA-A*0301 + sgRNA TAP cells (Fig 3A), peptide concentration not given): 123

HIV A*03-restricted RK9 epitope ([…], Gag p17 20-28) (peptide)
percent stable HLA-peptide complexes on the surface after 4 h at 37°C with BFA [6]: 40% | Tm of the HLA-peptide complex [7]: 53 °C
